In patent US20250145637A1, “SULFONAMIDE DERIVATIVE, PREPARATION METHOD THEREFOR AND MEDICAL USE THEREOF” (Jiangsu Hengrui Pharmaceuticals Co. Ltd., priority 2021, published 2025):

Key:
[1] = target: human KAT6A (Homo sapiens (Human), UniProt Q92794); assay: KAT6 enzyme activity assay (AlphaScreen method), KAT6A; format: biochemical; settings: inhibition of the enzyme human KAT6A
Excerpt: Test Example 1: KAT6 Enzyme Activity Assay (AlphaScreen Method)
I. Reagents and instrument • 1. KAT6A (customized by Chempartner) • 2. Ovalbumin (Sigma-Aldrich, A5378-5G) • 3. 2 M Tris-HCl solution, pH 7.8, sterile (Sangon, B548140-0500) • 4. 5 M NaCl solution (Sangon, B548121-0100) • 5. EDTA (0.5 M), pH 8.0, RNase-free (Thermofisher, AM9260G) • 6. Tween-20 (Sangon, A100777-0500) • 7. DTT, 1 M (Invitrogen, P2325) • 8. Acetyl coenzyme A (Ac-CoA, CAYMAN, Cat. No. 16160) • 9. Recombinant histone H3.1 biotinylated (human) (Active Motif 31696) • 10. 384-well plate, light gray (Perkin Elmer, Cat. No. 6005350) • 11. Anacardic acid (MCE, Cat. No. HY—N2020) • 12. AlphaScreen streptavidin donor beads, 5 mg (PerkinElmer, 6760002) • 13. AlphaScreen protein A acceptor beads, 5 mg (PerkinElmer, 6760137M) • 14. Acetylated-lysine antibody #9441 (CST 9441S) • 15. PHERA star microplate reader (BMG labtech) • II. Experimental method
a. 1× assay buffer: 100 mM Tris-HCl, pH 7.8; 15 mM NaCl; 1 mM EDTA; 0.01% tween-20; 1 mM DTT; 0.01% m/v ovalbumin.
b. KAT enzyme solution: 1.25 nM (final concentration), prepared in 1× assay buffer.
c. Mixed substrate of Ac-CoA and H3: a mixed substrate of 1000 nM (final concentration) Ac-CoA and 55 nM (final concentration) H3, prepared in 1× assay buffer.
d. Compounds: initial concentration of 100 μM, 3-fold dilution, 10 gradient concentrations. All compound concentrations were diluted 83-fold with 1× assay buffer for later use.
e. Assay reagent: 8 ng/μL (final concentration) AlphaScreen protein A acceptor beads, 8 ng/μL AlphaScreen streptavidin donor beads, 1:1500 diluted acetylated-lysine antibody, and 100 μM anacardic acid; prepared in 1× assay buffer.
(§1) 2. Experimental Procedure
a. The prepared enzyme solution was added to a 384-well plate at 3 μL/well, and 3 μL of 1× assay buffer was added to each well in columns 23 and 24 (Min).
b. 3 μL of compound solution was added to each well, and 3 μL of buffer was added to each Min well; 3 μL of DMSO solution was added to each well in columns 1 and 2 (Max) as controls. The plate was centrifuged, shaken for 2 min, and incubated at room temperature for 15 min.
c. The mixed substrate of Ac-CoA and H3 was added at 6 μL/well, and the plate was centrifuged, shaken for 2 min, and incubated at room temperature for 20 min.
d. The assay reagent was added at 6 μL/well, and the plate was centrifuged, shaken for 2 min, and incubated in the dark at room temperature for 120 min.
e. Plate reading was performed on the microplate reader, and AlphaScreen counts were recorded.
f. Plotting was performed using the Graphpad software, and the IC50 values of the compounds were calculated.

[2] = system: H3K23 acetylation in U-2 OS cells; assay: U2OS cell H3K23 acetylation IF assay (immunofluorescence); format: cell-based; settings: Homo sapiens; for IC50: 24 h incubation, read-out: H3K23 ac/IC50; for Emax: inhibition of H3K23 acetylation, 24 h, read-out: Maximum inhibition rate/Imax %
Method: Test Example 3: U2OS Cell H3K23 Acetylation IF Assay (Immunofluorescence)
I. Reagents and Instruments
• 1. U-2 OS (ATCC HTB-96) • 2. Recombinant anti-histone H3 (acetyl K23) antibody (Abcam, ab177275) • 3. Goat anti-rabbit IgG (H+L), Superclonal™ recombinant secondary antibody, Alexa Fluor 488 (Thermofisher, A27034) • 4. Hoechst 33342 (Sigma-Aldrich, B2261-25MG) • 5. Assay plate, 96-well, black with clear bottom (Corning, 3603) • 6. Bovine serum albumin (BSA) (Sangon Biotech, A500023-0100) • 7. Methanol (GENERAL-REAGENT, G75851D) • 8. Tween-20 (Sangon, A100777-0500) • 9. Triton X-100 (Solarbio, T8200) • 10. PBS (Shanghai BasalMedia Technologies Co., Ltd., B320KJ) • 11. 20×PBS buffer (Sangon Biotech, B548117-0500) • 12. McCoy's 5A medium (Gibco, 16600082) • 13. 0.25% trypsin-EDTA (1×) (Gibco, 25200-072) • 14. Pen strep (Gibco, 15140-122) • 15. DPBS (1×) (Gibco, 14190-144) • 16. FBS (Gibco, 10091148) • 17. Automatic cell counter (Countstar, IC1000) • 18. Thermostatic incubator (Thermo, 1160) • 19. ImageXpress® Micro Confocal (Molecular Device)
a. Blocking buffer: PBS (Shanghai BasalMedia)+BSA (final concentration of 1%)+Triton X-100 (final concentration of 0.5%).
b. Wash buffer: PBS (20×PBS was diluted to 1×PBS)+Tween-20 (final concentration of 0.1%).
c. Primary antibody solution: Recombinant anti-histone H3 (acetyl K23) antibody was diluted in blocking buffer at a ratio of 1:1000.
d. Secondary antibody solutions: Goat anti-rabbit IgG (H+L), Superclonal™ recombinant secondary antibody, Alexa Fluor 488 was diluted in blocking buffer at a ratio of 1:1000, and Hoechst 33342 was diluted in blocking buffer at a ratio of 1:5000.
e. Compounds: initial concentration of 100 μM, 3-fold dilution, 9 gradient concentrations. All compound concentrations were diluted 500-fold with McCoy's 5A medium for later use.
as §1
2.1. Cell Treatment (Day One)
a. The state of U-2 OS cells was observed under a microscope to make sure that the cell confluence was about 90%.
b. The cell supernatant was discarded. The cells were rinsed with DPBS once, and the DPBS was removed. The cells were digested with a proper amount of trypsin and left to stand at room temperature or 37° C. for 5 min.
c. The digestion was stopped with an equal volume of medium containing 10% FBS, and the cell suspension was collected and centrifuged at 300 g for 3 min. The cells were suspended in a proper amount of fresh medium.
d. The resulting cell suspension was collected and cell counting was performed.
e. The cell suspension was diluted and plated at 9000 cells/50 μL/well.
f. The wells on the periphery were blocked with 100 μL of PBS.
g. The cell culture plates were incubated overnight in a 37° C., 5% carbon dioxide incubator.
2.2. Compound Addition (Day Two)
a. 50 μL of diluted compound was added to the cell supernatant (50 μL/well) in each cell plate.
b. After the addition, the cell plates were incubated in a 37° C., 5% carbon dioxide incubator for 24 h.
2.3. Immunofluorescence Staining and Measurement (Day Three to Day Four)
a. After the 24-hour incubation, the cell plates were removed from the incubator. The medium was discarded, and plates were fixed with pre-cooled methanol at room temperature for 10 min.
b. The fixation buffer was discarded, and the plates were quickly washed with wash buffer 3 times and then slowly washed 3 times (5 min/wash).
c. The wash buffer was discarded, and blocking buffer was added. The plates were incubated at room temperature for 60 min.
d. The blocking buffer was discarded, and the prepared primary antibody solution was added. The plates were incubated overnight at 4° C.
e. The primary antibody solution was discarded, and the prepared secondary antibody solution was added. The plates were incubated at room temperature for 60 min.
f. The secondary antibody solution was discarded, and the plates were quickly washed with wash buffer 3 times and then slowly washed 5 times (5 min/wash).
g. The plates were tested on ImageXpress® Micro Confocal.
h. […]

Sequence of human KAT6A (Q92794 whole entry): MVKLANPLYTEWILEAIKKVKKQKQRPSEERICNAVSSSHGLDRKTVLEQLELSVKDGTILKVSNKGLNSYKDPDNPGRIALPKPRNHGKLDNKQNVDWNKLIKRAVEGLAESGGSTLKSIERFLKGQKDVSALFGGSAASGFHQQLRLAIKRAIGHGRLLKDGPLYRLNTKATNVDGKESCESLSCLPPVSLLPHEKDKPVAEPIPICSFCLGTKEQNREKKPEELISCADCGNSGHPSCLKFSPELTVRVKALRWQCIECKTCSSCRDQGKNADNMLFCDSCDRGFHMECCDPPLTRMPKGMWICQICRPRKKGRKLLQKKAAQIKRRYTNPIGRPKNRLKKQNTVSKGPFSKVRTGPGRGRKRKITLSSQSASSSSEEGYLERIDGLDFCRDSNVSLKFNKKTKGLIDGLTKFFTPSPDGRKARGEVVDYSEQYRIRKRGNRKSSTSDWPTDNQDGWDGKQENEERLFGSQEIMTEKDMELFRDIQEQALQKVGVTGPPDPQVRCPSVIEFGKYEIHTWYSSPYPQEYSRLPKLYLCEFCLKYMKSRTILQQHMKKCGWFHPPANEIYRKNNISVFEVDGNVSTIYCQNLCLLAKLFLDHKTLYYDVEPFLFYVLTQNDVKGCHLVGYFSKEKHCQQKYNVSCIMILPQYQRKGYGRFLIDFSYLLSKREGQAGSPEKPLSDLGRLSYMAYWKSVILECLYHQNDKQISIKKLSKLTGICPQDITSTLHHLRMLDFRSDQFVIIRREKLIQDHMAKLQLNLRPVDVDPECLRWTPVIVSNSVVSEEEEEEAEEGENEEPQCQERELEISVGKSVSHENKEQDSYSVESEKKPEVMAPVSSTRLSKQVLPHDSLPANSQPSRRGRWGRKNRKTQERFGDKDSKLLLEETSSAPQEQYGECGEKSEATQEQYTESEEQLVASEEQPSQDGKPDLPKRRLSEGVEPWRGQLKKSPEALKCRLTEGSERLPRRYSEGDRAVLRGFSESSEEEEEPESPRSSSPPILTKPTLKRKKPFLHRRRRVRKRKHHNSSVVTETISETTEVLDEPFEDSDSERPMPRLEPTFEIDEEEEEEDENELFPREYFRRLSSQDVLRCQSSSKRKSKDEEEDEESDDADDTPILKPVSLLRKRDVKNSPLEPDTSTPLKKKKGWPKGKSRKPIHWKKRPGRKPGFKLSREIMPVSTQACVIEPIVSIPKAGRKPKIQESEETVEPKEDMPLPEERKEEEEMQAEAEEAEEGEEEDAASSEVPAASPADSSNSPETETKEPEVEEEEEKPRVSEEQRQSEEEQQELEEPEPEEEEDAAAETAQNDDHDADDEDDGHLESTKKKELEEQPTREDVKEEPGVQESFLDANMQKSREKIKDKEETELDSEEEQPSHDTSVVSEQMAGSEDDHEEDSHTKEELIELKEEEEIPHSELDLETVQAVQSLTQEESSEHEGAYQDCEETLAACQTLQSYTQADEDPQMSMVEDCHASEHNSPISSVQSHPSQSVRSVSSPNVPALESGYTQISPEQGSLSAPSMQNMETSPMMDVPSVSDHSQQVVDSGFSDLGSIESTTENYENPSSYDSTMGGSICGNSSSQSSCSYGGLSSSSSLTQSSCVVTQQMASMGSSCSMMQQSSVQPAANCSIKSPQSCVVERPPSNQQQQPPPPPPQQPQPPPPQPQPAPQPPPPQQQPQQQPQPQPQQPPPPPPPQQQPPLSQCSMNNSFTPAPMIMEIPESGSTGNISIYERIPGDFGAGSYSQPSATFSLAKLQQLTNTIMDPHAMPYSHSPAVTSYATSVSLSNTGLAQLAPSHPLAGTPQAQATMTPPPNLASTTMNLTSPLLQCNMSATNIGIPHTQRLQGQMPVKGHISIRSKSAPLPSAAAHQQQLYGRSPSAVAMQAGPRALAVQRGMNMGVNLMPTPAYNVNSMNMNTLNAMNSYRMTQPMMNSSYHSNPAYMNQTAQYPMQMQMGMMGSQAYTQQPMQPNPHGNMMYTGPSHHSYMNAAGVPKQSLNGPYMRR

Compound `COc1cccc(OC)c1S(=O)(=O)Nc1noc2cc([C@H]3CCCO3)c3c(c12)OCC3` [Compound 26-1, (R)-2,6-dimethoxy-N-(4-(tetrahydrofuran-2-yl)-2,3-dihydrobenzofuro[7,6-d]isoxazol-8-yl)benzenesulfonamide] has an IC50 [1] of 5.2 nM.
Work on `CCc1ccc(S(=O)(=O)Nc2noc3cc(Cn4cccn4)c4c(c23)OCCC4)c(OC)c1` [Compound 13, N-(5-((1H-pyrazol-1-yl)methyl)-3,4-dihydro-2H-chromeno[8,7-d]isoxazol-9-yl)-4-ethyl-2-methoxybenzenesulfonamide] yielded an IC50 [1] of 0.3 nM.
Compound `COc1cc2c(cc1S(=O)(=O)Nc1noc3cc(Cn4cccn4)c4c(c13)OCC4)CCC2` [Compound 15, N-(4-((1H-pyrazol-1-yl)methyl)-2,3-dihydrobenzofuro[7,6-d]isoxazol-8-yl)-6-methoxy-2,3-dihydro-1H-indene-5-sulfonamide] has an IC50 [1] of 1.2 nM.
With `COc1ccc(C)cc1S(=O)(=O)Nc1noc2cc(Cn3cccn3)c3c(c12)OCC3` [Compound 18, N-(4-((1H-pyrazol-1-yl)methyl)-2,3-dihydrobenzofuro[7,6-d]isoxazol-8-yl)-2-methoxy-5-methylbenzenesulfonamide] the IC50 [1] was 12.5 nM.
In the case of `COc1cccc(OC)c1S(=O)(=O)Nc1noc2cc(C3CCCO3)c3c(c12)OCC3` (stereo not drawn) [Compound 26, 2,6-dimethoxy-N-(4-(tetrahydrofuran-2-yl)-2,3-dihydrobenzofuro[7,6-d]isoxazol-8-yl)benzenesulfonamide], the IC50 [1] is reported as 12.2 nM.
Work on `CCOc1cc(C)ccc1S(=O)(=O)Nc1noc2cc(Cn3cccn3)c3c(c12)OCC3` [Compound 16, N-(4-((1H-pyrazol-1-yl)methyl)-2,3-dihydrobenzofuro[7,6-d]isoxazol-8-yl)-2-ethoxy-4-methylbenzenesulfonamide] yielded an IC50 [1] of 1.9 nM.
`COc1cc(C)ccc1S(=O)(=O)Nc1noc2cc(Cn3cccn3)c3c(c12)OCC3` [Compound 22, N-(4-((1H-pyrazol-1-yl)methyl)-2,3-dihydrobenzofuro[7,6-d]isoxazol-8-yl)-2-methoxy-4-methylbenzenesulfonamide] was tested, and the IC50 [1] was 4.7 nM, the IC50 [2] was 2.9 nM and the Emax [2] was 105%.
For `COc1cccc(C)c1S(=O)(=O)Nc1noc2cc(Cn3cccn3)c3c(c12)OCC3` [Compound 17, N-(4-((1H-pyrazol-1-yl)methyl)-2,3-dihydrobenzofuro[7,6-d]isoxazol-8-yl)-2-methoxy-6-methylbenzenesulfonamide], the IC50 [1] was 10.5 nM.
In the case of `O=S(=O)(Nc1noc2cc(Cn3cccn3)c3c(c12)OCCC3)c1cccc2c1OCC2` [Compound 12, N-(5-((1H-pyrazol-1-yl)methyl)-3,4-dihydro-2H-chromeno[8,7-d]isoxazol-9-yl)-2,3-dihydrobenzofuran-7-sulfonamide], the IC50 [1] is reported as 12.5 nM.
`COc1ccccc1S(=O)(=O)Nc1noc2cc(Cn3cccn3)c3c(c12)OCCO3` [Compound 4, N-(5-((1H-pyrazol-1-yl)methyl)-2,3-dihydro-[1,4]dioxino[2′,3′:5,6]benzo[1,2-d]isoxazol-9-yl)-2-methoxybenzenesulfonamide] was tested, and the IC50 [1] was 4.2 nM, the IC50 [2] was 1.5 nM and the Emax [2] was 106%.
For `COc1cc(N(C)C)ccc1S(=O)(=O)Nc1noc2cc(Cn3cccn3)c3c(c12)OCCC3` [Compound 11, N-(5-((1H-pyrazol-1-yl)methyl)-3,4-dihydro-2H-chromeno[8,7-d]isoxazol-9-yl)-4-(dimethylamino)-2-methoxybenzenesulfonamide], the IC50 [1] was 1.6 nM, the IC50 [2] was 2.1 nM and the Emax [2] was 103%.
`COc1cc2c(cc1S(=O)(=O)Nc1noc3cc(Cn4cccn4)c4c(c13)OCC4)OCC2` [Compound 19, N-(4-((1H-pyrazol-1-yl)methyl)-2,3-dihydrobenzofuro[7,6-d]isoxazol-8-yl)-5-methoxy-2,3-dihydrobenzofuran-6-sulfonamide] showed an IC50 [1] of 2.7 nM.
